Reference: patent publication US12686665B2, “Bicyclic fused ring derivative or salt thereof and pharmaceutical composition comprising same” (YUHAN CORPORATION, priority 2021, dated 2026)
Counter-ions that a name gives are not always drawn.

Target: T1, recombinant human Lysyl Oxidase-Like 2 (LOXL2) (Homo sapiens, UniProt Q9Y4K0)
T1 construct: purchased R&D systems
T1 sequence (Q9Y4K0 26-774): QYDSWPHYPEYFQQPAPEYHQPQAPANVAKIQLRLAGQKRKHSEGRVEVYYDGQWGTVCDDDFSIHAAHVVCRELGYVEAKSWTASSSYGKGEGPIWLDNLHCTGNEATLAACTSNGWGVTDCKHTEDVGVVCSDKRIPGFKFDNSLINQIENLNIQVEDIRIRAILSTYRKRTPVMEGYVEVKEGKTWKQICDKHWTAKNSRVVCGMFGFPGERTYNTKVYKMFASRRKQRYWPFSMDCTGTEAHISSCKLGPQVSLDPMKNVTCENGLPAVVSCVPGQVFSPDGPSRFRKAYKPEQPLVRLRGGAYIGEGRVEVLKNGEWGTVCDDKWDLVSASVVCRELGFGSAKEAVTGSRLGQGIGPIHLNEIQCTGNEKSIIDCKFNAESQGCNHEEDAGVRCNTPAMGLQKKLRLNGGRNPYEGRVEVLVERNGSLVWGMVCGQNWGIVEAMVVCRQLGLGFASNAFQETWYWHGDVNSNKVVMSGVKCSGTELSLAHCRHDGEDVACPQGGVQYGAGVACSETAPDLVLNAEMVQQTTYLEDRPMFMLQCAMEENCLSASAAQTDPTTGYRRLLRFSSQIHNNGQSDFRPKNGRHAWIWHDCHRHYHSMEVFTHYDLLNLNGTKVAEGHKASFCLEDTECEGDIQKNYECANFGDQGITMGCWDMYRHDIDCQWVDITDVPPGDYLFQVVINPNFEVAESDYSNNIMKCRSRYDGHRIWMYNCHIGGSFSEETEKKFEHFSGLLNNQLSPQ
Assay: Amplex Red HRP-coupled amine oxidase assay, recombinant human LOXL2
Assay type: biochemical
Conditions: 60 min incubation with enzyme at 37° C., putrescine substrate, read-out: Inhibitory activity (IC50, nM) human LOXL2
Experimental: The activities of the compounds according to the present invention against recombinant human Lysyl Oxidase-Like 2 (recombinant human LOXL2, R&D systems) were evaluated by measuring the levels of hydrogen peroxide in the HRP (horseradish peroxidase) coupled reactions, with the Amplex Red Hydrogen Peroxide Assay Kit (Molecular Probes, Invitrogen, USA). The tests were carried out at 37° C., and putrescine was used as a substrate. In the HRP coupling reaction, the oxidation of 10-acetyl-3,7-dihydroxyphenoxazine (Amplex Red reagent) by hydrogen peroxide generates a fluorescent product, i.e., resorufin. Briefly, the test compounds were dissolved in dimethyl sulfoxide (DMSO) at a concentration of 20 mM. Dose-response measurements were carried out by serial dilutions in DMSO to generate a six-point curve. The upper concentration was adjusted according to the potency of the compound, and then diluted with the reaction buffer to obtain a final DMSO concentration of 1%. Purified human LOXL2 in 50 mM sodium phosphate buffer (pH7.4) was added to each well of a 96 well black plate. The test compounds dissolved in DMSO were incubated with the human LOXL2 enzyme at 37° C. for 60 minutes. After the incubation for 60 minutes, a reaction mixture containing 400 μM Amplex Red reagent, 30 mM putrescine, and 2 U/mL HRP in 50 mM sodium phosphate buffer (pH 7.4) was added to each well. Fluorescence was measured with a microplate reader (Flexstation3, Molecular Devices), under the conditions of excitation at 530 nm and emission at 590 nm, 1 hour after the addition of the mixture. Inhibition by each compound was measured as % reduction in signal, compared to the control without an inhibitor (diluted DMSO only). The data were fixed to a four-variable logistic model, and […] values were calculated using the GraphPad Prism program.

SMILES | IC50
CCn1nccc1-c1cc(C(F)(F)F)cc2c1ncn2C/C(F)=C/CN [Example 177, (Z)-4-(4-(1-ethyl-1H-pyrazol-5-yl)-6-(trifluoromethyl)-1H-benzo[d]imidazol-1-yl]-3-fluoro-but-2-en-1-amine hydrochloride] | 419 nM
N#Cc1cc(-c2cccnc2)c2ncn(C/C(F)=C/CN)c2c1 [Example 187, (Z)-1-(4-amino-2-fluorobut-2-en-1-yl)-4-(pyridin-3-yl)-1H-benzo[d]imidazol-6-carbonitrile hydrochloride] | 464 nM
NC/C=C(\F)Cn1nnc2c(-c3cccc(CO)c3Cl)cc(C(F)(F)F)cc21 [Example 199, (Z)-(3-(1-(4-amino-2-fluoro-2-en-1-yl)-6-(trifluoromethyl)-1H-benzo[d][1,2,3]triazol-4-yl)-2-chlorophenyl)methanol hydrochloride] | 305 nM
CS(=O)(=O)c1cccc(-c2cccc3c2nnn3C/C(F)=C/CN)c1 [Example 106, (Z)-3-fluoro-4-(4-(3-(methylsulfonyl)phenyl)-1H-benzo[d][1,2,3]triazol-1-yl)but-2-en-1-amine hydrochloride] | 94 nM
NC/C=C(\F)Cn1nnc2c(-c3cc(CO)ccc3F)cc(C(F)(F)F)cc21 [Example 198, (Z)-(3-(1-(4-amino-2-fluorobut-2-en-1-yl)-6-(trifluoromethyl)-1H-benzo[d][1,2,3]triazol-4-yl)-4-fluorophenyl)methanol hydrochloride] | 226 nM
COc1ccc(-c2cccc3c2nnn3C/C(F)=C/CN)cc1S(=O)(=O)NC(C)C [Example 109, (Z)-5-(1-(4-amino-2-fluorobut-2-en-1-yl)-1H-benzo[d][1,2,3]triazol-4-yl)-N-isopropyl-2-methoxybenzenesulfonamide hydrochloride] | 72 nM
COC(=O)c1cc(-c2cccc(S(=O)(=O)NCc3ccc(OC)cc3)c2)c2nnn(C/C(F)=C/CN)c2c1 [Example 125, methyl (Z)-1-(4-amino-2-fluorobut-2-en-1-yl)-4-(3-(N-(4-methoxybenzyl)sulfamoyl)phenyl)-1H-benzo[d][1,2,3]triazol-6-carboxylate hydrochloride] | 70.6 nM
CCN(CC)S(=O)(=O)c1ccc(OC)c(-c2cc(C(=O)NOC)cc3c2nnn3C/C(F)=C/CN)c1 [Example 135, (Z)-1-(4-amino-2-fluorobut-2-en-1-yl)-4-(5-(N,N-diethylsulfamoyl)-2-methoxyphenyl)-N-m ethoxy-1H-benzo[d][1,2,3]triazol-6-carboxamide hydrochloride] | 35.6 nM
CONC(=O)c1cc(-c2cc(S(=O)(=O)NC3CC3)ccc2OC)c2nnn(C/C(F)=C/CN)c2c1 [Example 136, (Z)-1-(4-amino-2-fluorobut-2-en-1-yl)-4-(5-(N-cyclopropylsulfamoyl)-2-methoxyphenyl)-N-methoxy-1H-benzo[d][1,2,3]triazol-6-carboxamide hydrochloride] | 6.4 nM
COC(=O)c1cc(-c2ccc(OC)c(S(=O)(=O)NC(C)C)c2)c2nnn(C/C(F)=C/CN)c2c1 [Example 121, methyl (Z)-1-(4-amino-2-fluorobut-2-en-1-yl)-4-(3-(N-isopropylsulfamoyl)-4-methoxyphenyl)-1H-benzo[d][1,2,3]triazol-6-carboxylate hydrochloride] | 42.9 nM
N#Cc1cc(-c2cncc(F)c2)c2nnn(C/C(F)=C/CN)c2c1 [Example 208, (Z)-1-(4-amino-2-fluorobut-2-en-1-yl)-4-(5-fluoropyridin-3-yl)-1H-benzo[d][1,2,3]triazol-6-carbonitrile hydrochloride] | 270 nM
COC(=O)c1cc(-c2cccc(S(=O)(=O)N(C)C)c2)c2nnn(C/C(F)=C/CN)c2c1 [Example 124, methyl (Z)-1-(4-amino-2-fluorobut-2-en-1-yl)-4-(3-(N,N-dimethylsulfamoyl)phenyl)-1H-benzo[d][1,2,3]triazol-6-carboxylate hydrochloride] | 14.2 nM
Cn1nc(C(F)(F)F)cc1-c1cc(C#N)cc2c1ncn2C/C(F)=C/CN [Example 193, (Z)-1-(4-amino-2-fluorobut-2-en-1-yl)-4-(1-methyl-3-(trifluoromethyl)-1H-pyrazol-5-yl)-1H-benzo[d]imidazol-6-carbonitrile hydrochloride] | 204 nM
COC(=O)c1cc(-c2cccc(S(=O)(=O)N3CCCC3)c2)c2nnn(C/C(F)=C/CN)c2c1 [Example 116, methyl (Z)-1-(4-amino-2-fluorobut-2-en-1-yl)-4-(3-(pyrrolidin-1-ylsulfonyl)phenyl)-1H-benzo[d][1,2,3]triazol-6-carboxylate hydrochloride] | 52.4 nM
N#Cc1cc(-c2cncc(Cl)c2)c2nnn(C/C(F)=C/CN)c2c1 [Example 209, (Z)-1-(4-amino-2-fluorobut-2-en-1-yl)-4-(5-chloropyridin-3-yl)-1H-benzo[d][1,2,3]triazol-6-carbonitrile hydrochloride] | 86.8 nM
COC(=O)c1cc(-c2cccc(S(=O)(=O)N3CCCCC3)c2)c2ncn(C/C(F)=C/CN)c2c1 [Example 33, methyl (Z)-1-(4-amino-2-fluorobut-2-en-1-yl)-4-(3-(piperidin-1-ylsulfonyl)phenyl)-1H-benzo[d]imidazol-6-carboxylate hydrochloride] | 55.6 nM
NC/C=C(\F)Cn1nnc2c(-c3cccc(S(=O)(=O)N4CCCC4)c3)cccc21 [Example 104, (Z)-3-fluoro-4-(4-(3-(pyrrolidin-1-ylsulfonyl)phenyl)-1H-benzo[d][1,2,3]triazol-1-yl)but-2-en-1-amine hydrochloride] | 51 nM
CC(=O)c1ccc(F)c(-c2cc(C(F)(F)F)cc3c2nnn3C/C(F)=C/CN)c1 [Example 197, (Z)-1-(3-(1-(4-amino-2-fluorobut-2-en-1-yl)-6-(trifluoromethyl)-1H-benzo[d][1,2,3]triazol-4-yl)-4-fluorophenyl)ethan-1-one hydrochloride] | 308 nM
CC(C)n1nccc1-c1cc(C(F)(F)F)cc2c1ncn2C/C(F)=C/CN [Example 178, (Z)-3-fluoro-4-(4-(1-isopropyl-1H-pyrazol-5-yl)-6-(trifluoromethyl)-1H-benzo[d]imidazol-1-yl)but-2-en-1-amine hydrochloride] | 463 nM
COC(=O)c1cc(-c2cccc(S(=O)(=O)NCc3ccc(OC)cc3)c2)c2ncn(C/C(F)=C/CN)c2c1 [Example 32, methyl (Z)-1-(4-amino-2-fluorobut-2-en-1-yl)-4-(3-(N-(4-methoxybenzyl)sulfamoyl)phenyl)-1H-benzo[d]imidazol-6-carboxylate hydrochloride] | 60.1 nM
CCS(=O)(=O)c1cccc(-c2cc(C(=O)OC)cc3c2nnn3C/C(F)=C/CN)c1 [Example 127, methyl (Z)-1-(4-amino-2-fluorobut-2-en-1-yl)-4-(3-(ethylsulfonyl)phenyl)-1H-benzo[d][1,2,3]triazol-6-carboxylate hydrochloride] | 19 nM
COC(=O)c1cc(-c2ccc(OC)c(S(=O)(=O)NC(C)C)c2)c2ncn(C/C(F)=C/CN)c2c1 [Example 28, methyl (Z)-1-(4-amino-2-fluorobut-2-en-1-yl)-4-(3-(N-isopropylsulfamoyl)-4-methoxyphenyl)-1H-benzo[d]imidazol-6-carboxylate hydrochloride] | 54.2 nM
CONC(=O)c1cc(-c2ccc(OC)c(S(=O)(=O)N(C)C)c2)c2nnn(C/C(F)=C/CN)c2c1 [Example 132, (Z)-1-(4-amino-2-fluorobut-2-en-1-yl)-4-(3-(N,N-dimethylsulfamoyl)-4-methoxyphenyl)-N-methoxy-1H-benzo[d][1,2,3]triazol-6-carboxamide hydrochloride] | 18.7 nM
COC(=O)c1cc(-c2ccc(OC)c(S(=O)(=O)N(C)C)c2)c2nnn(C/C(F)=C/CN)c2c1 [Example 114, methyl (Z)-1-(4-amino-2-fluorobut-2-en-1-yl)-4-(3-(N,N-dimethylsulfamoyl)-4-methoxyphenyl)-1H-benzo[d][1,2,3]triazol-6-carboxylate hydrochloride] | 18.6 nM
